Patent US20260258051A1, “Camptothecin Compound, Preparation Method Therefor and Use Thereof” (SICHUAN KELUN-BIOTECH BIOPHARMACEUTICAL CO., LTD., priority 2022, published 2026)
Like-named read-outs stand apart in the source and are kept apart here.

How the values were obtained:
HCC827 cells = experiment: Inhibitory effect on HCC827 cell proliferation; format: cell-based; settings: Homo sapiens; HCC827, 72 h incubation, Cell Counting-Lite 2.0
Description: (1) Cell plating: First, tumor cells HCC827 were cultured with corresponding culture medium, the cells were digested with trypsin and centrifuged, then the cells were resuspended and counted, and the cells were adjusted to an appropriate concentration for plating.
(§1) Co-incubation of the compounds of the present invention and tumor cells: After cell adherence, the culture medium in the cells was removed, and the diluted bioactive molecules (compounds of the present invention) were added into the wells of the above plates, and incubated for 72 h.
(§2) In vitro cell viability detection: After the incubation, 50 μL of Cell Counting-Lite™ 2.0 reagent (Vazyme) was added to each well, shaken and mixed well in the dark, and reacted for 10 minutes before testing. Microplate reader (manufacturer: BMG, Model: PHERA Star-FS) was used for reading. The Cell Counting-Lite™ without cells was used to obtain the background RLU, and the Cell Counting-Lite™ with cells was used obtain the solvent RLU. Cell inhibition rate=1−(sample RLU−background RLU)/(solvent RLU−background RLU)×100%. The half-inhibition concentration (IC50) of compound was calculated by fitting the curve according to the four-parameter model. RLU: relative light unit.

HCC1954 cells = experiment: Inhibitory effect on HCC1954 cell proliferation; format: cell-based; settings: Homo sapiens; HCC1954, 72 h incubation, Cell Counting-Lite 2.0
Description: (1) Cell plating: First, tumor cells HCC1954 were cultured with corresponding culture medium, the cells were digested with trypsin and centrifuged, then the cells were resuspended and counted, and the cells were adjusted to an appropriate concentration for plating.
as §1, §2

NCI-H1975 cells = experiment: Inhibitory effect on NCI-H1975 cell proliferation; format: cell-based; settings: Homo sapiens; NCI-H1975, 72 h incubation, Cell Counting-Lite 2.0
Description: (1) Cell plating: First, tumor cells NCI-H1975 were cultured with corresponding culture medium, the cells were digested with trypsin and centrifuged, then the cells were resuspended and counted, and the cells were adjusted to an appropriate concentration for plating.
as §1, §2

[1] = Permeability test in MDCK cell model; format: in vitro ADME; settings: dog
Description: (§3) The MDCK cell model was used to evaluate the permeability of the compounds, the LC-MS/MS method was used to determine the concentration of the substance to be tested, and the apparent permeability coefficient (Papp) and efflux ratio were calculated [Efflux ratio=Papp(B→A)/Papp(A→B)].
(§4) Complete culture medium: 10% fetal bovine serum and 1% penicillin/streptomycin were added to MEM culture medium.
(§5) Digestive solution: 0.05% trypsin-EDTA.
(§6) HBSS buffer: HBSS containing Ca^2+, Mg^2+.
(§7) Permeating solution: HBSS containing 10 mM Hepes, 4% BSA, pH 7.4.
(§8) Compound stock solution: a certain amount of the compound to be tested was weighed and formulated with DMSO to prepare a 10 mM stock solution.
(§9) MDCK cells (26th generation) in the logarithmic growth phase were digested and dispersed evenly with 0.05% trypsin-EDTA, and then inoculated into the Transwell chamber at 3*10^5 cells/cm^2, with 200 μL on the A side and 1000 μL on the B side. After inoculation, the medium was changed once every day and the culturing was carried out for 3 to 4 days.
(§10) The cell culture medium was discarded by pipetting, then washing was carried out three times with the permeating solution. 200 μL of permeating solution was added to A side and 1000 μL of permeating solution was added to B side. A voltage resistance meter was used to measure the cell transmembrane resistance (TEER). After the TEER value of the cells was measured, the permeating solution on both sides was discarded by pipetting, and the solution was added. After 120 minutes, 150 μL of samples were taken from A side and B side, respectively, and frozen at −80° C. before testing. Then, 10 μg/ml Fluorescent Yellow was added to A side. After incubation for 30 minutes, 100 μL of solution at B side was pipetted and added into a 96-well white plate. The fluorescence value was measured at the wavelengths of Ex=485 nm and Em=530 nm using a microplate reader, and the permeance was calculated (which was less than 1%).
(§11) 80 μL of the compound to be tested was taken, added to 320 μL of acetonitrile solution containing internal standard (30 ng/mL Tolbutamide), vortexed, and centrifuged for 10 min (4000 rpm, 4° C.), and the supernatant was taken for LC-MS/MS analysis.
(§12) Excel 2013 was used to calculate Papp values and Papp ratio of B side→A side to A side→B side, and the recovery rates of each Control Compound and the compound to be tested were calculated.
(§13) Apparent permeability coefficient (Papp) of compound was calculated according to the following formula:
(§14) C0 was the initial concentration (μM) of the drug to be tested at the donor, (dCr/dt)×Vr was the rate (μM/s) at which the drug to be tested appeared at the receiver, Vr was the solution volume (mL) at the receiver, and A was the surface area (cm^2) of polycarbonate membrane.
(§15) Evaluation criteria: Low permeability: Papp≤0.5 (×10^−6 cm/s) • Medium permeability: 0.5<Papp<2.5 (×10^−6 cm/s) • High permeability: Papp≥2.5 (×10^−6 cm/s)
(§16) Efflux ratio (ER) was calculated according to Papp:
(§17) [formula] • wherein, Papp(B→A) was the apparent permeability coefficient of the drug to be tested from the BL (baso-lateral) end to the AP (apical) end, and Papp (A→B) was the apparent permeability coefficient of the drug to be tested from the AP end to the BL end.
(§18) • Probably being an efflux transporter substrate (Probably): ERa≥2 and ERa/ERi>2 • Likely being an efflux transporter substrate (Likely): ERa≥2 • Unlikely or impossibly being an efflux transporter substrate (Poor or non): ERa<2 • wherein, ERi and ERa were the efflux ratios of the compound to be tested in the presence and absence of P-gp inhibitor, respectively.

MDCK cells = experiment: Permeability test in MDCK cell model; format: in vitro ADME
Description: as §3, §4, §5, §6, §7, §8, §9, §10, §11, §12, §13, §14, §15, §16, §17, §18

[2] = Liver microsome stability test (human); format: in vitro ADME; settings: 1 μM
Description: (§19) Liver microsomes were used as an in vitro model to evaluate the metabolic stability of compounds in human and monkey liver microsomes.
Mixed human liver microsomes: Xenotech, USA
(§20) The positive compound testosterone or the tested substance (liver microsome solution, 50 μL) was mixed with PBS (25 μL). After pre-incubation (37° C.) for 5 min, NADPH (25 μL) was added to make the final concentration of the positive compound or the tested substance 1 μM, the final concentration of human liver microsomal protein was 0.5 mg/ml, the final concentration of monkey liver microsomal protein was 1 mg/ml, the tested substance group and the positive compound group were incubated for 0 min, 15 min. After being reacted for corresponding time, 300 μL of ice-cold acetonitrile containing internal standard was added to terminate the reaction, vortexed, and stored at −80° C. for later analysis. All incubated samples were double samples.
(§21) The tested compound was vortexed for 1 min, and centrifuged for 10 min (4° C., 4000 rpm), and 300 μL of the supernatant was taken for LC-MS/MS analysis.
(§22) Excel software was used to calculate the remaining rate (%) of the drug in primary form in the incubation system: […]

[3] = Liver microsome stability test (monkey); format: in vitro ADME, cynomolgus; settings: 1 μM
Description: as §19
Mixed male cynomolgus liver microsomes: RILD, China
as §20, §21, §22

HT29 cells = experiment: Inhibitory effect on HT29 cell proliferation; format: cell-based; settings: Homo sapiens, HT-29; HT29, 72 h incubation, Cell Counting-Lite 2.0
Description: (1) Cell plating: First, tumor cells HT29 were cultured with corresponding culture medium, the cells were digested with trypsin and centrifuged, then the cells were resuspended and counted, and the cells were adjusted to an appropriate concentration for plating.
(§23) Co-incubation of the compounds of the present invention and tumor cells: 90 μL of cell suspension was added to 96-well plates respectively. After cell adherence, 10 μL of bioactive molecules (compounds of the present invention) diluted with culture medium were added into the wells of the above plates, and incubated for 72 h.
(§24) In vitro cell viability detection: After the incubation, 50 μL of Cell Counting-Lite™ 2.0 reagent (Vazyme) was added to each well, shaken and mixed well in the dark, and reacted for 10 minutes before testing. Microplate reader (manufacturer: BMG, Model: PHERA Star-FS) was used for reading. The culture wells without cells were used as the background RLU, and the culture wells with cells but no compound were used as the cell control RLU. Cell inhibition rate=1−(sample RLU−background RLU)/(cell control RLU−background RLU)×100%. The half-inhibition concentration (IC50) of compound was calculated by fitting the curve according to the four-parameter model.

HCC1806 cells = experiment: Inhibitory effect on HCC1806 cell proliferation; format: cell-based; settings: Homo sapiens; HCC1806, 72 h incubation, Cell Counting-Lite 2.0
Description: (1) Cell plating: First, tumor cells HCC1806 were cultured with corresponding culture medium, the cells were digested with trypsin and centrifuged, then the cells were resuspended and counted, and the cells were adjusted to an appropriate concentration for plating.
as §23, §24

NCI-H358 cells = experiment: Inhibitory effect on NCI-H358 cell proliferation; format: cell-based; settings: Homo sapiens; NCI-H358, 72 h incubation, Cell Counting-Lite 2.0
Description: (1) Cell plating: First, tumor cells NCI-H358 were cultured with corresponding culture medium, the cells were digested with trypsin and centrifuged, then the cells were resuspended and counted, and the cells were adjusted to an appropriate concentration for plating.
as §23, §24

NCI-N87 cells = experiment: Inhibitory effect on NCI-N87 cell proliferation; format: cell-based; settings: Homo sapiens, NCI-N87, 72 h, read-out: IC50 (nM), inhibitory activity on NCI-N87 cell proliferation
Description: (1) Cell plating: First, tumor cells NCI-N87 were cultured with corresponding culture medium, the cells were digested with trypsin and centrifuged, then the cells were resuspended and counted, and the cells were adjusted to an appropriate concentration for plating.
as §23, §24

MDA-MB-231 cells = experiment: Inhibitory effect on MDA-MB-231 cell proliferation; format: cell-based; settings: Homo sapiens; MDA-MB-231, 72 h incubation, Cell Counting-Lite 2.0
Description: (1) Cell plating: First, tumor cells MDA-MB-231 were cultured with corresponding culture medium, the cells were digested with trypsin and centrifuged, then the cells were resuspended and counted, and the cells were adjusted to an appropriate concentration for plating.
as §23, §24

Jeko-1 cells = experiment: Inhibitory effect on Jeko-1 cell proliferation; format: cell-based; settings: Homo sapiens; Jeko-1, 72 h incubation, Cell Counting-Lite 2.0
Description: (1) Cell plating: First, tumor cells Jeko-1 were cultured with corresponding culture medium, the cells were resuspended and counted, and finally the cells were adjusted to an appropriate concentration for plating.
as §23, §24

MDA-MB-453 cells = experiment: Inhibitory effect on MDA-MB-453 cell proliferation; format: cell-based; settings: Homo sapiens; MDA-MB-453, 72 h incubation, Cell Counting-Lite 2.0
Description: (1) Cell plating: First, tumor cells MDA-MB-453 were cultured with corresponding culture medium, the cells were digested with trypsin and centrifuged, then the cells were resuspended and counted, and the cells were adjusted to an appropriate concentration for plating.
as §23, §24

[4] = pH 7.4, 2.00 μM, Papp(B→A)/Papp(A→B), absence of P-gp inhibitor, read-out: Efflux ratio (ERa)

Compound `CC[C@@]1(O)C(=O)OCc2c1cc1n(c2=O)Cc2c-1nc1cc(F)c(Cl)c3c1c2[C@@H](NC(=O)C[C@H](C)O)CC3` [Compound 2-25, (S)—N-((1S,9S)-4-chloro-9-ethyl-5-fluoro-9-hydroxy-10,13-dioxo-2,3,9,10,13,15-hexahydro-1H,12H-benzo[d]pyrano[3′,4′:6,7]indolizino[1,2-b]quinolin-1-yl)-3-hydroxybutyamide] has an IC50 (HCC827 cells) of 110 nM, an IC50 (HCC1954 cells) of 171 nM and an IC50 (NCI-H1975 cells) of 29.4 nM. The Papp A→B at 120 min, 2 μM ([1]; pH 7.4) was 0.78 ×10⁻⁶ cm/s, the Papp B→A at 120 min, 2 μM ([1]; pH 7.4) was 3.56 ×10⁻⁶ cm/s and the efflux ratio at 120 min, 2 μM ([1]; pH 7.4) was 4.57. For the same compound, the “Permeability class according to the Papp(A→B) results” value (“Permeability class according” below) (MDCK cells) was “medium-permeability”, the “Remaining rate (%) Human” value ([2]; human, microsomes, 0.25 h) was 80.0% and the “Remaining rate (%) Monkey” value ([3]; male, monkey, microsomes, 0.25 h) was 79.5%.

With `CC[C@@]1(O)C(=O)OCc2c1cc1n(c2=O)Cc2c-1nc1cc(F)c(C)c3c1c2[C@@H](NC(=O)C[C@H](C)O)CC3` [Control Compound 4, reference compound] the efflux ratio at 120 min, 2 μM [1, 4] was 21.7, the Papp A→B at 120 min, 2 μM ([1]; pH 7.4, concentration 2.00 μM, 120 minutes, A to B, read-out: Papp A to B) was 0.24 ×10⁻⁶ cm/s and the Papp B→A at 120 min, 2 μM ([1]; pH 7.4, concentration 2.00 μM, 120 minutes, B to A, read-out: Papp B to A) was 5.25 ×10⁻⁶ cm/s. For the same compound, the “Efflux transporter substrate evaluation from efflux ratio” value (MDCK cells; 2.00 μM) was “could be efflux transporter substrates”, the “Permeability class according” value (MDCK cells; 2.00 μM) was “low-permeability” and the “Remaining rate (%) Human” value ([2]; human liver microsomes 0.5 mg/ml, 15 min, NADPH) was 64.6%. For the same compound, the “Remaining rate (%) Monkey” value ([3]; monkey liver microsomes 1 mg/ml, 15 min, NADPH) was 65.1%.

Compound `CC[C@@]1(O)C(=O)OCc2c1cc1n(c2=O)Cc2c-1nc1cc(F)c(Cl)cc1c2CNC(=O)CO` [Compound 2-1, (S)—N-((9-chloro-4-ethyl-8-fluoro-4-hydroxy-3,14-dioxy-3,4,12,14-tetrahydro-1H-pyrano[3′,4′:6,7]indolizino[1,2-b]quinolin-11-yl)methyl)-2-hydroxyacetamide] has an IC50 (HT29 cells) of 14.6 nM, an IC50 (HCC1806 cells) of 8.08 nM and an IC50 (NCI-H358 cells) of 121 nM. It also gave an IC50 (NCI-N87 cells) of 81.6 nM, an IC50 (MDA-MB-231 cells) of 38.5 nM and an IC50 (Jeko-1 cells) of 1.62 nM. For the same compound, the IC50 (MDA-MB-453 cells) was 156 nM, the Papp A→B at 120 min, 2 μM ([1]; pH 7.4) was 0.52 ×10⁻⁶ cm/s and the Papp B→A at 120 min, 2 μM ([1]; pH 7.4) was 0.42 ×10⁻⁶ cm/s. The efflux ratio at 120 min, 2 μM [1, 4] was 0.81, the “Permeability class according” value (MDCK cells) was “medium-permeability” and the “Efflux transporter substrate evaluation from efflux ratio” value (MDCK cells; 2.00 μM) was “not efflux transporter substrates or were weak efflux transporter substrates”.
